In the NIST ThermoML archive (doi:10.1016/j.fluid.2016.11.031):

Assay: molar heat capacity at constant pressure
Settings: Liquid, Flow calorimetry

C1C[C@@H]2[C@H]3CC[C@H](C3)[C@@H]2C1 [exo-tetrahydrodicyclopentadiene]
Settings	molar heat capacity at constant pressure [J/K/mol]
323.34 K, 100 kPa	219.49
323.34 K, 4000 kPa	218.3
323.34 K, 5020 kPa	218.14
323.35 K, 3070 kPa	218.8
323.35 K, 6080 kPa	217.34
323.37 K, 1030 kPa	219.39
323.37 K, 2050 kPa	218.99
333.16 K, 3990 kPa	223.29
333.17 K, 5040 kPa	223.42
333.17 K, 5990 kPa	223.32
333.2 K, 100 kPa	224.4
333.2 K, 1070 kPa	224.39
333.2 K, 3000 kPa	223.84
333.21 K, 2020 kPa	224.41
343.01 K, 100 kPa	230.29
343.03 K, 1090 kPa	230.02
343.06 K, 2070 kPa	229.6
343.06 K, 3060 kPa	229
343.09 K, 4000 kPa	229.5
343.09 K, 5030 kPa	228.72
343.09 K, 6000 kPa	229.08
353.59 K, 100 kPa	234.98
353.59 K, 4080 kPa	234.11
353.59 K, 5070 kPa	234.17
353.6 K, 6090 kPa	233.83
353.61 K, 1080 kPa	234.61
353.61 K, 2010 kPa	234.35
353.62 K, 3070 kPa	234.12
363.48 K, 100 kPa	240.37
363.53 K, 1070 kPa	240.28
363.53 K, 2030 kPa	240.09
363.53 K, 2990 kPa	239.97
363.54 K, 4080 kPa	239.88
363.54 K, 5000 kPa	239.76
363.55 K, 6020 kPa	239.67
383.58 K, 3060 kPa	248.68
383.58 K, 4010 kPa	248.49
383.59 K, 5070 kPa	248.39
383.6 K, 100 kPa	249.31
383.6 K, 1000 kPa	248.82
383.6 K, 5990 kPa	248.35
383.61 K, 2020 kPa	248.8
403.36 K, 100 kPa	260.34
403.36 K, 1020 kPa	259.74
403.37 K, 2060 kPa	259.23
403.38 K, 3040 kPa	258.89
403.38 K, 4010 kPa	257.41
403.39 K, 5000 kPa	256.93
403.4 K, 6070 kPa	256.62
423.2 K, 1020 kPa	271.44
423.2 K, 2050 kPa	270.28
423.2 K, 3010 kPa	268.73
423.21 K, 100 kPa	271.95
423.25 K, 4020 kPa	267.73
423.26 K, 4980 kPa	267.54
423.27 K, 6000 kPa	266.96
443.11 K, 3110 kPa	282.78
443.13 K, 2050 kPa	283.43
443.14 K, 1030 kPa	284.05
443.15 K, 240 kPa	284.8
443.17 K, 4060 kPa	282.05
443.18 K, 6050 kPa	280.75
443.19 K, 5030 kPa	281.38
463.16 K, 2040 kPa	298.88
463.17 K, 230 kPa	301.77
463.18 K, 1060 kPa	300.31
463.19 K, 4070 kPa	297.53
463.2 K, 3000 kPa	299.41
463.21 K, 5010 kPa	297.44
463.22 K, 6020 kPa	296.56
483.31 K, 2050 kPa	316.76
483.32 K, 3040 kPa	315.54
483.37 K, 4030 kPa	315.19
483.37 K, 6060 kPa	314.11
483.38 K, 5080 kPa	314.31
483.39 K, 1020 kPa	319.24
483.42 K, 470 kPa	321.27
503.28 K, 1020 kPa	336.59
503.28 K, 2040 kPa	334.35
503.28 K, 3050 kPa	333.03
503.29 K, 4090 kPa	330.6
503.29 K, 5070 kPa	331.61
503.3 K, 480 kPa	338.7
503.3 K, 6000 kPa	331.5
523.44 K, 3010 kPa	348.07
523.45 K, 1030 kPa	352.98
523.45 K, 2060 kPa	350.7
523.47 K, 500 kPa	355.43
523.49 K, 5040 kPa	345.42
523.49 K, 6180 kPa	344.08
523.5 K, 4000 kPa	346.42
